Results taken from US12605361B2, “Carboxylated psilocybin derivatives and methods of using” (Enveric Biosciences Canada Inc., priority 2020, dated 2026).

What was measured:
5-HT1A receptor = target: T1, 5-HT1A receptor (Homo sapiens, UniProt P08908); assay: cAMP-Glo assay of 5-HT1A activation in +5-HT1A cells (CHO-K1/5-HT1A/Gα15); type: cell-based; settings: for 5-HT1A binding activity from % cAMP levels trend: +5HT1A cell cultures; for 5-HT1A activity from luminescence (cAMP) trend: +5HT1A cell culture, FIG. 14B, 14C
T1 construct: host or cells: CHO-K1 stably expressing 5-HT1A and Gα15
T1 sequence (P08908 1-422): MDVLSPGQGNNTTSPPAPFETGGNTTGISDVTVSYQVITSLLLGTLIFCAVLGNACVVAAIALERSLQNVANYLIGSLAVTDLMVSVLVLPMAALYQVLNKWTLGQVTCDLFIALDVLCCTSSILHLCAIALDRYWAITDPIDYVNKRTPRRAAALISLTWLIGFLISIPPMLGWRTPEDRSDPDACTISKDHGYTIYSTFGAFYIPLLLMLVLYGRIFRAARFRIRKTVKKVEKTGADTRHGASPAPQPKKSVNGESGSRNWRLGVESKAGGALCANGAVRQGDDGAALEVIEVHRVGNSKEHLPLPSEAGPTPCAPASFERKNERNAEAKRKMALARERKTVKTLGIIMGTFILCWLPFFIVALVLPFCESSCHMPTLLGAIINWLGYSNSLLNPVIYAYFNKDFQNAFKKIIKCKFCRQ
From the text: (§1) CHO-K1/Gα15 (GenScript, M00257) (−5-HT1A) and CHO-K1/5-HT1A/Gα15 (GenScript, M00330) (+5-HT1A) cells lines were used. Briefly, CHO-K1/Gα15 is a control cell line that constitutively expresses Gα15 which is a promiscuous Gq protein. This control cell line lacks any transgene encoding 5-HT1A receptors, but still responds to forskolin; thus, cAMP response to forskolin should be the same regardless of whether or not 5-HT1A agonists are present. Conversely, CHO-K1/5-HT1A/Gα15 cells stably express 5-HT1A receptor in the CHO-K1 host background. […] In +5-HT1A cells, Gα15 may be recruited in place of Gαi/o, which could theoretically dampen cAMP response (Rojas and Fiedler 2016, Front Cell Neurosci 10: 272). […] In contrast, tryptophan is not known to activate 5-HT1A receptors, and was thus used as a negative control. Cells were maintained in complete growth media as recommended by supplier (GenScript) which is constituted as follows: Ham's F12 Nutrient mix (HAM's F12, GIBCO #11765-047) with 10% fetal bovine serum (FBS) (Thermo Scientific #12483020), 200 μg/ml zeocin (Thermo Scientific #R25005) and/or 100 μg/ml hygromycin (Thermo Scientific #10687010). The cells were cultured in a humidified incubator with 37° C. and 5% CO2. Cells maintenance was carried out as recommended by the cell supplier. Briefly, vials with cells were removed from the liquid nitrogen and thawed quickly in 37° C. water bath. Just before the cells were completely thawed the vial's outside was decontaminated by 70% ethanol spray. The cell suspension was then retrieved from the vial and added to warm (37° C.) complete growth media, and centrifuged at 1,000 rpm for 5 minutes. The supernatant was discarded, and the cell pellet was then resuspended in another 10 ml of complete growth media, and added to the 10 cm cell culture dish (Greiner Bio-One #664160). The media was changed every third day until the cells were about 90% confluent. The ˜90% confluent cells were then split 10:1 for maintenance or used for experiment.
The change in intracellular cAMP levels due to the treatment of novel molecules was measured using cAMP-Glo Assay kit (Promega #V1501). Briefly, +5-HT1A cells were seeded on 1-6 columns and base −5-HT1A cells were seeded on columns 7-12 of the white walled clear bottom 96-well plate (Corning, #3903). Both cells were seeded at the density of 30,000 cells/well in 100 μl complete growth media and cultured 24 hrs in humidified incubator at 37° C. and 5% CO2. On the experiment day, the media of cells was replaced with serum/antibiotic free culture media. Then the cells were treated for 20 minutes with test molecules dissolved in induction medium ([…], 500 μM IBMX (isobutyl-1-methylxanthine, Sigma-Aldrich, Cat. #17018) and 100 μM (RO 20-1724, Sigma-Aldrich, Cat. #B8279)). Forskolin induced cAMP formation whereas IBMX and RO 20-1724 inhibited the degradation of cAMP. PKA was added to the lysate, mixed, and subsequently the substrate of the PKA was added. PKA was activated by cAMP, and the amount of ATP consumed due to PKA phosphorylation directly corresponded to cAMP levels in the lysate. Reduced ATP caused reduced conversion of luciferin to oxyluciferin, conferring diminished luminescence as the result of 5-HT1A activation. […] Note that compound (VI) is shown simply as (VI) along the x-axis. For FIGS A-C, error bars represent results of three experiments (n=3).

[1] = test system: CHO-K1/Gα15 (−5-HT1A) cells; assay: cAMP-Glo assay in −5-HT1A control cells (CHO-K1/Gα15); type: cell-based; settings: −5HT1A cell cultures (control without 5-HT1A receptor); FIG. 14D-14F
From the text: as §1, with “The cell suspension was then retrieved from the vial and added to warm (37° C.) complete growth media, and centrifuged at 1,000 rpm for 5 minutes. The supernatant was discarded, and the cell pellet was then resuspended in another 10 ml of complete growth media, and added to the 10 cm cell culture dish (Greiner Bio-One #664160). The media was changed every third day until the cells were about 90% confluent. The ˜90% confluent cells were then split 10:1 for maintenance or used for experiment.” left out
As 5-HT1A activation inhibits cAMP formation, the agonist activity of test molecules on 5-HT1A was measured via the reduction in the levels of cAMP produced due to application of 4 μM forskolin. The change in intracellular cAMP levels due to the treatment of novel molecules was measured using cAMP-Glo Assay kit (Promega #V1501). […] Reduced ATP caused reduced conversion of luciferin to oxyluciferin, conferring diminished luminescence as the result of 5-HT1A activation. […]

5-HT2A receptor = target: T2, 5-HT2A receptor (Homo sapiens, UniProt P28223); assay: [3H]ketanserin competition binding assay (SPA) on membranes containing 5-HT2A; settings: fixed (1 nM) [3H]ketanserin; FIG. 13B, 13C
T2 construct: purchased PerkinElmer ES-313-M400UA
T2 sequence (P28223 whole entry): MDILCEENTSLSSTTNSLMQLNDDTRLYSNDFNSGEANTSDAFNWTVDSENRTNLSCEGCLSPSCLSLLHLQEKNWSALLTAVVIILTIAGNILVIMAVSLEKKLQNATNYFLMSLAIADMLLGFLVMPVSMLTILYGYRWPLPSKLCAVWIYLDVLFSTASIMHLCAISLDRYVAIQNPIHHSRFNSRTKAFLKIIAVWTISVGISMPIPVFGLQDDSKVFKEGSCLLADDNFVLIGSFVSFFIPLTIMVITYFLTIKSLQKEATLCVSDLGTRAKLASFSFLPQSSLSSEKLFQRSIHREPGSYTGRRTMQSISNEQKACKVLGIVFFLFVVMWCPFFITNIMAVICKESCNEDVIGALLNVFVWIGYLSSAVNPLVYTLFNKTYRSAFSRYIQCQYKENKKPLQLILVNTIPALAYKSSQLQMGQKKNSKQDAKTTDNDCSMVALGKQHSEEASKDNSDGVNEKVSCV
From the text: Evaluation of drug binding is an essential step to characterization of all drug-target interactions (Fang 2012, Exp Opin Drug Discov 7:969). The binding affinity of a drug to a target is traditionally viewed as an acceptable surrogate of its in vivo efficacy (Núñez et al., 2012, Drug Disc Today 17: 10). Competition assays, also called displacement or modulation binding assays, are a common approach to measure activity of a ligand at a target receptor (Flanagan 2016, Methods Cell Biol 132: 191). In these assays, standard radioligands acting either as agonists or antagonists are ascribed to specific receptors. […] After incubation, the samples were read on a MicroBeta 2 Microplate Counter (Perkin Elmer). […] Equilibrium binding constants for ketanserin (Kd) were determined from saturation binding curves using the ‘one-site saturation binding analysis’ method of GraphPad PRISM software (Version 9.2.0). […] Ki values were calculated from the competition displacement data using the competitive binding analysis from GraphPad PRISM software. […] Specific binding in counts per minute (cpm) was calculated by subtracting non-specific binding from total binding. Specific binding (pmol/mg) was calculated from μmol of [^3H]ketanserin bound per mg of protein in the assay. The Kd was calculated by fitting the data with the one-site binding model of PRISM software (version 9.2.0).

[2] = fixed (4 μM) forskolin, decreasing dosages of ligand, FIG. 14D, 14E
[3] = fixed (4 μM) forskolin, decreasing dosages of ligand

COc1ccc(C(=O)O)c2[nH]cc(CCN)c12 [compound (VI)]
5-HT1A binding activity from % cAMP levels trend (5-HT1A receptor; [2]): mild 5-HT1A binding activity | trend of increasing % cAMP levels with decreasing compound [1]: not observed

CN(C)CCc1c[nH]c2ccccc12 [DMT]
5-HT1A activity from luminescence (cAMP) trend (5-HT1A receptor; [3]): 5-HT1A activity

CN(C)CCc1c[nH]c2cccc(O)c12 [psilocin]
competition binding curve versus [3H]ketanserin (5-HT2A receptor): binding

NCCc1c[nH]c2c(C(=O)O)ccc(O)c12 [compound (VII)]
5-HT1A binding activity from % cAMP levels trend (5-HT1A receptor; decreasing dosages of compound, FIG. 14F): 5-HT1A binding activity | trend of increasing % cAMP levels with decreasing compound [1]: not observed

N[C@@H](Cc1c[nH]c2ccccc12)C(=O)O [tryptophan]
competition binding curve versus [3H]ketanserin (5-HT2A receptor): no binding | 5-HT1A activity from luminescence (cAMP) trend (5-HT1A receptor; [3]): lack of 5-HT1A activity

NCCc1c[nH]c2ccc(O)cc12 [serotonin]
5-HT1A binding activity from % cAMP levels trend (5-HT1A receptor; [2]): 5-HT1A binding activity | trend of increasing % cAMP levels with decreasing compound [1]: not observed
